From patent publication US20130338114A1, “COMPOSITIONS FOR INCREASING STRENGTH, MUSCLE MASS, AND LEAN BODY MASS” (Chemi Nutra, priority 2012, published 2013)
Blank lines part the entries; values can stand above or below the compound they belong to.

Columns and labels:
[1] = LC/MS/MS analysis of LPA and PA in human plasma after oral PA (Example 8); conditions: in vivo
Description: Lyso-phosphatidic acid (LPA) and phosphatidic acid (PA) from human plasma includes a physical distribution of molecules varying in their fatty acids esterified to the sn-1 and sn-2 positions of glycerol-3-phosphate. The differences in polarity among the fatty acid substituted structures provide a means to resolve individual species under reversed phase chromatographic conditions. This analysis coupled with selective mass spectrometric detection based on molecular weight and distinctive fragmentation for LPA and PA compounds provided the basis for quantitation in the samples described herein. Total LPA and PA content are measured as the sum of the individual species measured.
Human plasma of a subject was analyzed after administration of lyso-phosphatidic acid and phosphatidic acid. One subject consumed 2 g of PA in form of Mediator® (Chemi Nutra). The data from the study provided the composition and concentration of PA and lyso-PA in human blood plasma as a baseline value, and changes in PA and lyso-PA concentrations after 30 minutes, 1 hour, 2 hours, 3 hours and 7 hours. It was determined that PA administration results in increases in lyso-PA and PA concentrations in human blood plasma.
An ultra performance liquid chromatograph with triple quadrupole mass spectrometry (LC/MS/MS) method was utilized to measure the content of LPA and PA molecular species in human plasma. A Waters Acquity™ Ultra-performance liquid chromatography system coupled with an AB Sciex 5500 tandem quadrupole mass spectrometer was the instrumentation platform.
Column: Agilent, Eclipse™ XDB-C8 4.6×150 mm, 1.8 μm, sn. USHAN01857, pn. 927975-906. Flow=1 mL/minute at 40° C. Mobile phases: A=70:28.5:1.5 (/v) methanol:water:acetic acid with 0.08% TEA/v;
The identified molecular species were detected using a multiple reaction monitoring (MRM) technique for the -ve mode exact mass of [M-H]^− and the corresponding fragment 153 amu. […]
The content of each molecular species was calculated from the internal standards present in each sample extract. […]

[2] = tested on: known non-responder to creatine supplementation; test: Creatine non-responder Subject A (RJ): body weight and total strength, two-week strength training program; type: in vivo, human; conditions: subject one
Procedure: patient one, 198 cm tall, a known non-responder to creatine supplementation, followed a two-week strength training program while testing whether supplementation with PA-enriched-phospholipid improves creatine response. Total starting body weight and strength were measured on day one, followed by the training program, consisting of concentric and eccentric isotonic lifting exercises that worked the upper and lower body muscle groups. Either free weights or weight machines were used once or twice weekly. Strength training was performed three times per week with at least one day of rest between sessions, which alternated between lower and upper body exercises. During the two-week period, a total of six training sessions (three upper and three lower) were performed. Each exercise included two sets of ten repetitions at 30% and 60% 1RM, followed by two sets of 3 to 5 repetitions at 90% 1RM. The lower body exercise included seven different exercises: seated leg press, leg curls, standing calf raises, leg extensions, inclined leg lift, inverted situps (back extension) and 45° inclined situps. The upper body exercise consisted of seven different exercises: bench press, latissimus pulldown, triceps pulldown, inclined dumbbell curls, seated preacher curls, seated rows, and CyBec Pec Fly. Total upper body weight and lower body weight lifted were calculated as the average weight lifted during the last three sets multiplied by the average repetition in each set. Total strength was determined as the combined lower and upper total weight lifted. Total body weight was determined after day 8 and day 15. Strength was measured on days 1 and 15. A four-week rest period followed the first two-week training program. The same program was repeated twice, the control was supplementation of creatine monohydrate (Creapure, Alzchem, Germany) 4 times 5 grams per day for five days of loading, followed by nine days of five grams creatine monohydrate. During the second program, creatine monohydrate was given as for the control program with the addition of PA-enriched phospholipid (Chemi Nutra, White Bear Lake, Minn.) which was about 50% PA.

[3] = tested on: known non-responder to creatine supplementation; test: Creatine non-responder Subject B (MP): body weight and total strength, three-week strength training program; type: in vivo, human; conditions: subject two
Procedure: patient two, 185 cm tall, also a known non-responder to creatine supplementation, followed a three-week strength training program while testing whether supplementation with PA-enriched-phospholipid improves creatine response. Total starting total body weight and strength were measured on day one, followed by the training program, consisting of concentric and eccentric isotonic lifting exercises that worked the upper and lower body muscle groups with either free weights or weight machines used once or twice weekly. Strength training was performed three times per week with at least one day of rest between sessions, which alternated between lower and upper body exercises. During the three-week period, a total of 10 training sessions (five upper body and five lower body) were performed. Each exercise included two sets of ten repetitions at 40% and 65% 1RM, followed by two sets of 3 to 5 repetitions at 90% 1RM.
The lower body exercise included seven different exercises: seated leg press, leg curls, standing calf raises, leg extension, inclined leg lift, inverted situps (back extension) and 45° inclined situps. The upper body exercise consisted of seven different exercises: bench press, latissimus pulldown, triceps pulldown, inclined dumbbell curls, seated preacher curls, seated rows, and CyBec Pec Fly. Total upper body and lower body weight lifted were calculated as the average weight lifted during the last three sets multiplied by the average repetition in each set. Total strength was determined as the combined lower and upper total weight lifted. […] Strength was measured on days 1 and 22.
A four-week rest period followed the first three-week training program. The same program was repeated twice, the control was supplemented with creatine monohydrate (Creapure®, Alzchem, Germany), 5 grams per day of five grams creatine monohydrate for 21 days. During the second program, creatine monohydrate was given as for the control program with the addition of 1 gram per day PA-enriched phospholipid (Chemi Nutra, White Bear Lake, Minn.), which contained about 50% PA.

plasma concentration, Time 0 @10 AM [1]: 51.33 nM
Compound: CCCCCCCCCCCCCCCC(=O)OCC(O)COP(=O)(O)O (centres unmarked) [16:0 LPA]

Compound: CN(CC(=O)O)C(=N)N [Creatine Supplement, N-methyl-N-guanyl glycine]
body weight, day 1 ([2]; day 1): 88.8 kg | increase in total strength (total weight lifted) ([2]; day 1 to day 15): 5% | body weight, day 8 ([2]; day 8): 88.3 kg | body weight, day 15 ([2]; day 15): 88.0 kg | body weight, day 1 ([3]; day 1): 81.9 kg | increase in total strength (total weight lifted) ([3]; day 1 to day 22): 5% | body weight, day 10 ([3]; day 10): 81.5 kg | body weight, day 22 ([3]; day 22): 81.2 kg

plasma concentration, Time 0 @10 AM [1]: 0.00 nM
Compound: CCCCCCCCCCCCCCCCCC(=O)OC[C@@H](O)COP(=O)(O)O [18:0 LPA]

plasma concentration, Time 0 @10 AM [1]: 13.00 nM
Compound: CCCCCCCCCCCCCC(=O)OC[C@@H](O)COP(=O)(O)O [14:0 LPA]
